Assay [1] relates to E-cadherin expression in HCT-116 cells. In words: Western blot of E-cadherin expression, CXCR4-negative HCT-116 cells. In kind it is cell-based. As for the experimental part:
(§1) HCT-8, HT-29, and HT-116 cells were grown in DMEM medium supplied with 10% fetal bovine serum (FBS) and 1% penicillin-streptomycin. Caco-2 cells were grown in DMEM medium supplied with 10% FBS, 1% non-essential amino acid NEAA), and 1% penicillin-streptomycin. Cells were cultured at 37 °C and 5% CO2. As cells reached confluency, they were detached using 0.25% Trypsin-EDTA.
For Western blot analyses, HCT-8 (n = 15), HCT-116 (n = 12), Caco-2 (n = 6), and HT-29 (n = 12) cells were seeded in 6-well plates at a density of 1 × 10^6 cells/well. Twenty-four hours after seeding, all cell lines were treated with 1 μM EntF* or a placebo solution. HCT-8 cells were also tested for responsiveness to 1 μM EntF* synthetic alanine-derived analogs. For antagonist activity analysis, HCT-8 cells were treated with 1 μM Nef-M1 or 1 μM EntF*A1 alone or in combination with 500 nM EntF*. After 24 h, cells were detached from the surface and lysed in RIPA buffer (Thermo Scientific). Protein concentration was determined using the modified Lowry protein assay kit (Thermo Scientific), according to the manufacturer’s instructions. Protein samples were diluted to the same concentration (4 μg/μL) with water and diluted again 1:1 using 2x Laemmli buffer. After that, samples were boiled for 5 min at 95 °C to denature proteins and centrifuged for 5 min at 16,000g; supernatants were used for Western blot analyses. Equal amounts of total protein (20 μg/lane) were separated by SDS-PAGE on an Any kD^TM gel (Bio-Rad ) and then transferred to a PVDF membrane. Before incubation with antibodies, non-specific binding sites on the membranes were blocked using 5% skimmed milk solution (1 h). TBS buffer with 0.05% Tween 20 was used for all washing steps. Membranes were incubated overnight at 4 °C with an anti-E-cadherin primary antibody (1/1000 dilution). An HRP-conjugated anti-rabbit antibody (1/2000 dilution, 1 h incubation) was used for chemiluminescent detection. Membranes were incubated with the detection substrate for 5 min and signal detection was performed using the ChemiDoc EZ imager and Image Lab software (Bio-Rad). Signal intensity was normalized against the total protein content in each lanes.
(In general: Immunoblotting shows a protein as a band on a membrane.)

For assay [2], the system named is EntF*-mediated E-cadherin downregulation in HCT-8 cells. Description: Antagonist activity analysis by Western blot. In kind it is cell-based. As for the experimental part: as §1
For Western blot analyses, HCT-8 (n = 15), HCT-116 (n = 12), Caco-2 (n = 6), and HT-29 (n = 12) cells were seeded in 6-well plates at a density of 1 × 10^6 cells/well. Twenty-four hours after seeding, all cell lines were treated with 1 μM EntF* or a placebo solution. HCT-8 cells were also tested for responsiveness to 1 μM EntF* synthetic alanine-derived analogs. For antagonist activity analysis, HCT-8 cells were treated with 1 μM Nef-M1 or 1 μM EntF*A1 alone or in combination with 500 nM EntF*. After 24 h, cells were detached from the surface and lysed in RIPA buffer (Thermo Scientific). Protein concentration was determined using the modified Lowry protein assay kit (Thermo Scientific), according to the manufacturer’s instructions. […]
The Kolmogorov-Smirnov test was used to assess if data obtained were normally distributed. […] Cohen’s d values were calculated as a measure of the effect size when similar standard deviations for both groups were found, and sample sizes were the same.

Assay [3] has as its system luciferase-transfected HCT-8/E11 cells injected into the cecal wall. Description: Orthotopic mouse model: macroscopic number of tumor nodules on the cecum. In kind it is in vivo, female athymic nude mice (Swiss nu/nu). As for the experimental part:
(§2) Six-week-old female athymic nude mice (Swiss nu/nu) were anesthetized, and a minimally invasive midline laparotomy was performed to localize the cecum. The cecum was then gently pulled out, and luciferase-transfected HCT-8/E11 cells (1 × 10^6 cells) in 20 μL serum-free DMEM medium with Matrigel (1:1) were injected into the cecal wall. Before implantation, cells were treated with EntF* (10^2 nM), Phr0662 (10^2 nM), vehicle (PBS), or TGFα positive control (0.1 μg mL^−1) solutions for 5 days. The cecum was then carefully placed back into the abdominal cavity and the surgical incision was closed with two layers of sutures with PDS 6-0. […] Once a week, mice were examined for tumor growth and metastases using bioluminescent imaging with the IVIS Lumina II (Perkin Elmer, Belgium) after i.p. injection with 200 μL luciferin (150 mg kg^−1). After 6 weeks, mice were euthanized using cervical dislocation, and the liver, diaphragm, lungs, cecum, duodenum, and peritoneum were macroscopically examined for the presence of tumor nodules. Liver and lung tissues were then fixed in formalin for 24 h and stored in 70% ethanol for maximum 3 days before embedding in paraffin. Next, a hematoxylin and eosin (H&E) staining was performed on 8 μm sections, and 3 sections per mouse were visualized using microscopy. Slides from tumor-bearing mice were analyzed by two blinded, independent investigators using the scoring system described in Additional file 5: Table S3. In case of differences, slides were scored by a third blinded, independent investigator for consensus.
The Kolmogorov-Smirnov test was used to assess if data obtained were normally distributed. For sample size n < 10, non-parametric tests (Mann-Whitney U test) were performed directly. Slope comparison was based on linear regression analysis. Bootstrapped medians and Hedges G-values were used to calculate the effect size when sample sizes were different between the groups. Cohen’s d values were calculated as a measure of the effect size when similar standard deviations for both groups were found, and sample sizes were the same.

The test system of assay [4] is tumor nodules in the liver. In words: Orthotopic mouse model: histopathological evaluation of liver. In kind it is in vivo, female athymic nude mice (Swiss nu/nu). The protocol:
as §2

Assay [5] concerns tumor nodules in the lungs. Description: Orthotopic mouse model: histopathological evaluation of lungs. In kind it is in vivo, female athymic nude mice (Swiss nu/nu). As for the experimental part:
as §2

The mark [6] stands for this setting: 6 weeks of treatment, H&E histopathological score, n = 30 EntF*, n = 8 PBS.

Structures are written as SMILES. Values joined by “and” are separate entries in the source; they are usually repeats but may differ in a detail not shown here. Equal entries are not always repeated.

Regarding `CC(C)C[C@@H]1NC(=O)[C@H](CO)NC(=O)[C@H](Cc2ccccc2)NC(=O)[C@H](C(C)C)NC(=O)[C@@H](NC(=O)[C@H](CCC(=O)O)NC(=O)[C@@H](NC(=O)[C@H](CC(C)C)NC(=O)[C@H](CC(N)=O)NC(=O)[C@@H](N)CO)C(C)C)CSSC[C@@H](C(=O)N[C@@H](CC(N)=O)C(=O)O)NC(=O)[C@H](CCCCN)NC(=O)[C@H](CCCCN)NC(=O)[C@H](Cc2ccccc2)NC1=O` (single isomer, unassigned) [EntF*], the “effect on E-cadherin expression in HCT-116 cells” value in assay [1] (CXCR4-negative cells, 24 h, n = 12) is “no decrease”. Further, the “Relative E-cadherin level” value in assay [1] (HCT-116 cells, average of n = 12) amounted to 103.8. Further, the “E-cadherin level, EntF* only” value in assay [2] (HCT-8 cells, EntF* only, 24 h, relative to control, n = 15) stood at 62%. The “Relative E-cadherin level (% of control), mean” value in assay [2] (mean of the replicates) turned out to be 62.0. The “effect size class by Hedges' G, number of nodules in the cecum” value in assay [3] (after a 6-week treatment, compared to the placebo group) is “medium”. The “Mean amount of nodules” value in assay [3] (macroscopic evaluation caecum, mean of the group) came out at 11.5. In assay [4] (setting [6]), the “number of tumor nodules in the liver compared to the vehicle” value is on record as “significantly higher number of tumor nodules”. Moreover, in assay [4] (per group), the “Histology scoring LIVER, conclusion per group” value came to 1. Also, the “number of tumor nodules in the lungs compared to the vehicle” value in assay [5] (setting [6]) is “significantly higher number of tumor nodules”. Further, the “Histology scoring LUNGS, Scoring person 1 (ND)” value in assay [5] (individual samples, one line per sample) is 3 and 4 and 0 and 1. Besides, in assay [5] (per group), the “Histology scoring LUNGS, conclusion per group” value was determined as 1.
